US10570117B2, “Phenylimidazole compound” (Otsuka Pharmaceutical Factory, Inc., priority 2015, dated 2020)
Converted amounts (≈) assume the structure as drawn. Read-outs that look alike come from different tables or passages of the source.

Experiments:
[1] = tested on: lipoprotein lipase (LPL) gene; assay: LPL mRNA elevating action (RT-PCR quantification of LPL mRNA in C2Cl2 cells); format: cell-based, mouse; conditions: compound 10 μM, ratio relative to the amount of LPL mRNA in cells with DMSO only; for fold induction at 10 µM: Mus musculus, 24 h, read-out: Rate of increase in LPL mRNA
Protocol: LPL mRNA Elevating Action
C2Cl2 cells (cell strain derived from striated muscle of mouse) were seeded in 96-well plates using a DMEM medium (Gibco) (containing 2 mM L-glutamine and 10% fetal bovine serum). After the cells were grown, the medium was removed. Subsequently, media obtained by adding dimethyl sulfoxide (DMSO) solutions of the compounds to the same medium as described above to a concentration of 10 μM were individually added to the cells and allowed to stand for 24 hours. The compound-containing media were removed, and the plates were washed with phosphate buffered saline. Thereafter, the remaining cells were lysed and subjected to a reverse transcription polymerase chain reaction (RT-PCR reaction) to obtain cDNA. Primers specific to lipoprotein lipase (LPL) gene, a necessary enzyme, etc., were added to the obtained cDNA. The mixture was set in 7500 Fast Real Time PCR System produced by Applied Biosystem to perform a PCR reaction (20 cycles) and the amount of LPL mRNA amplified was quantified. The LPL mRNA elevating action of each compound in the test cells was indicated as the ratio relative to the amount of LPL mRNA in cells allowed to stand in a medium to which only DMSO was added, with the amount being defined as 1.
As Comparative Example 1, a test was performed in the same manner as above, using a compound disclosed as the compound of Example 57 in WO2010/090200.

[2] = Solubility in gastric juice or intestinal juice model fluid (precipitation method using DMSO); format: physicochemical; conditions: room temperature
Outline: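 Compound in DMSO added to JP disintegration test fluid 1 (pH 1.2) or fluid 2 (pH 6.8) and shaken 24 h at room temperature. After filtration, dissolved concentration (μg/mL) determined by UV absorbance against compound calibration curves.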

[3] = pH 1.2, simulated gastric fluid, kinetic from dmso stock, 1st fluid for Disintegration Test of Japanese Pharmacopoeia (pH: 1.2), read-out: Solubility (μg/mL) 1st fluid
[4] = pH 6.8, kinetic from dmso stock, 2nd fluid for Disintegration Test of Japanese Pharmacopoeia (pH: 6.8), read-out: Solubility (μg/mL) 2nd fluid

Row | Compound | fold induction at 10 µM [1] | solubility at 24 h [2, 3] | solubility at 24 h [2, 4] | Rate of increase in LPL mRNA ([1]; 24 hours) | Solubility (μg/mL) 1st fluid ([2]; 1st fluid for Disintegration Test of Japanese Pharmacopoeia (pH: 1.2), 24 hours) | Solubility (μg/mL) 2nd fluid ([2]; 2nd fluid for Disintegration Test of Japanese Pharmacopoeia (pH: 6.8), 24 hours) | melting point
1 | COc1cc(OCc2ncc(Br)cc2F)ccc1-c1cnc(-c2ccc(F)nc2)[nH]1 [Example 111, 5-bromo-3-fluoro-2-[[4-(2-(6-fluoropyridin-3-yl)-1H-imidazol-5-yl)-3-methoxyphenoxy]methyl]pyridine] | 2.46 | 9.4 µg/mL (≈ 19.9 µM) | 1.2 µg/mL (≈ 2.54 µM) | – | – | – | –
2 | COc1cc(-c2[nH]c(C3CCCC(F)(F)C3)nc2Br)ccc1OCc1ccc(C(F)(F)F)cn1 (stereo not drawn) [Example 171] | – | – | – | 2.89 | >109 µg/mL | <1.9 µg/mL | –
3 | COc1cc(OCc2ccc(C(F)(F)F)cn2)ccc1-c1nc(-c2ccc(Cl)nc2)n(CC2CC2)c1C [Example 156] | 3.27 | 104 µg/mL (≈ 197 µM) | 3.6 µg/mL (≈ 6.81 µM) | – | – | – | –
4 | COc1cc(OCc2ncc(C(F)(F)F)cc2F)ccc1-c1cnc(C2CCC(F)(F)C2)[nH]1 (stereo not drawn) [Example 340] | 2.26 | 93.8 µg/mL (≈ 199 µM) | 8.1 µg/mL (≈ 17.2 µM) | – | – | – | –
5 | COc1cc(OCc2ncc(C(F)(F)F)cc2F)ccc1-c1cnc(C2CC2)[nH]1 [Example 375] | 1.83 | 73.9 µg/mL (≈ 181 µM) | 72.5 µg/mL (≈ 178 µM) | – | – | – | –
6 | COc1cc(OCc2ncc(Cl)cc2C(F)(F)F)ccc1-c1cnc(-c2ccc(F)nc2)[nH]1 [Example 138] | 2.97 | – | – | – | – | – | –
7 | COc1cc(O)ccc1-c1cnc(C2CCC(F)(F)CC2)[nH]1 [Example 338] | 1.32 | > 62 µg/mL | 59.7 µg/mL (≈ 194 µM) | – | – | – | –
8 | COc1cc(-c2[nH]c(-c3ccc(C)nc3)nc2Cl)ccc1OCc1ncc(C(F)(F)F)cc1F [Example 405] | 2.78 | – | – | – | – | – | –
9 | COc1cc(OCc2ncc(C(F)(F)F)cc2F)ccc1-c1cnc(-c2ccc(C)nc2)[nH]1 [Example 402] | 2.37 | – | – | – | – | – | –
10 | COc1cc(OCc2ncc(C(F)(F)F)cc2F)ccc1-c1[nH]c(C2CC(F)(F)C2)nc1F [Example 401] | 2.9 | – | – | – | – | – | –
11 | COc1cc(-c2cnc(-c3ccc(C)nc3)[nH]2)ccc1OCc1ncc(C(F)(F)F)cc1F [Example 403] | 2.09 | – | – | – | – | – | –
12 | CCCCOC(C)n1cc(-c2ccc(OCc3ncc(C(F)(F)F)cc3F)cc2OC)nc1-c1ccc(F)nc1 (stereo not drawn) [Example 389] | 1.63 | 96 µg/mL (≈ 171 µM) | 1.8 µg/mL (≈ 3.2 µM) | – | – | – | –
13 | COc1cc(OC(C)c2ccc(C(F)(F)F)cn2)ccc1-c1c[nH]c(-c2ccc(F)nc2)n1 (stereo not drawn) [Example 117] | 3.38 | 80.2 µg/mL (≈ 175 µM) | 2.6 µg/mL (≈ 5.67 µM) | – | – | – | –
14 | COc1cc(OCc2ccc(C(F)(F)F)nc2)ccc1-c1cnc(C2CCC(F)(F)C2)[nH]1 (stereo not drawn) [Example 3] | 2.48 | 87.5 µg/mL (≈ 193 µM) | 1 µg/mL (≈ 2.21 µM) | – | – | – | –
15 | COc1cc(-c2cnc(C3CC3)[nH]2)ccc1OCc1ncc(C(F)(F)F)cc1F [Example 376] | 1.18 | 75.2 µg/mL (≈ 185 µM) | 79.4 µg/mL (≈ 195 µM) | – | – | – | –
16 | COc1cc(OCc2ccc(C(F)(F)F)nc2)c(C)cc1-c1cnc(C2CCC(F)(F)CC2)[nH]1 [Example 12] | 2.23 | 15.6 µg/mL (≈ 32.4 µM) | < 1.7 µg/mL | – | – | – | –
17 | COc1cc(-c2cnc(C3CCC(F)(F)C3)[nH]2)ccc1OCc1ncc(C(F)(F)F)cc1F (stereo not drawn) [Example 341] | 1.75 | 91.7 µg/mL (≈ 195 µM) | 15.8 µg/mL (≈ 33.5 µM) | – | – | – | –
18 | COc1cc(OCc2ncc(C(F)(F)F)cc2F)ccc1-c1[nH]c(-c2ccc(F)nc2)nc1CO [Example 413, [5-(4-((3-fluoro-5-(trifluoromethyl)pyridin-2-yl)methoxy)-2-methoxyphenyl)-2-(6-fluoropyridin-3-yl)-1H-imidazol-4-yl]methanol] | 2.06 | 37 µg/mL (≈ 75.1 µM) | 2.9 µg/mL (≈ 5.89 µM) | – | – | – | –

Row | Compound | fold induction at 10 µM [1] | solubility at 24 h [2, 3] | solubility at 24 h [2, 4] | Rate of increase in LPL mRNA ([1]; 24 hours) | Solubility (μg/mL) 1st fluid ([2]; 1st fluid for Disintegration Test of Japanese Pharmacopoeia (pH: 1.2), 24 hours) | Solubility (μg/mL) 2nd fluid ([2]; 2nd fluid for Disintegration Test of Japanese Pharmacopoeia (pH: 6.8), 24 hours) | melting point
19 | COc1cc(OCc2cnc(C)cn2)ccc1-c1nc(-c2ccc(Cl)nc2)[nH]c1Cl [Example 219] | 2.42 | 7.5 µg/mL (≈ 17 µM) | < 1.6 µg/mL | – | – | – | –
20 | COc1cc(-c2cnc(C3CCCC3)[nH]2)ccc1OCc1ncc(C(F)(F)F)cc1F [Example 366] | 1.95 | 79.2 µg/mL (≈ 182 µM) | 24.7 µg/mL (≈ 56.7 µM) | – | – | – | –
21 | COc1cc(-c2cnc(-c3ccc(F)nc3)[nH]2)ccc1OC(C)c1ncc(C(F)(F)F)cc1F (stereo not drawn) [Example 392] | 1.73 | 60.8 µg/mL (≈ 128 µM) | < 0.3 µg/mL | – | – | – | –
22 | COc1cc(-c2c[nH]c(C3CCCCCC3)n2)ccc1OCc1ccc(C(F)(F)F)cn1 [Example 72] | 2.75 | > 116 µg/mL | 1.8 µg/mL (≈ 4.04 µM) | – | – | – | –
23 | COc1cc(OC(C)c2ncc(Br)cc2F)ccc1-c1cnc(-c2ccc(F)nc2)[nH]1 (stereo not drawn) [Example 128] | 2.28 | 94.9 µg/mL (≈ 195 µM) | 4 µg/mL (≈ 8.21 µM) | – | – | – | –
24 | COc1cc(OCc2ncc(C(F)(F)F)cc2F)ccc1-c1[nH]c(-c2ccc(C)nc2)nc1Cl [Example 404] | 3.26 | – | – | – | – | – | –
25 | COc1cc(OCc2ncc(C(F)(F)F)cc2F)ccc1-c1cnc(C2CCC2)[nH]1 [Example 371] | 3.57 | 84 µg/mL (≈ 199 µM) | 42.9 µg/mL (≈ 102 µM) | – | – | – | –
26 | COc1cc(-c2cnc(-c3ccc(F)nc3)[nH]2)ccc1OCc1ncc(C(F)(F)F)cc1F [Example 324] | 1.95 | 20.2 µg/mL (≈ 43.7 µM) | 0.8 µg/mL (≈ 1.73 µM) | – | – | – | –
27 | Fc1ccc(-c2ncc(-c3ccc(OCc4ncc(C(F)(F)F)cc4F)cc3OCc3ccccc3)[nH]2)cn1 [Example 398, 2-[(3-(benzyloxy)-4-(2-(6-fluoropyridin-3-yl)-1H-imidazol-5-yl)phenoxy)methyl]-3-fluoro-5-(trifluoromethyl)pyridine] | 2.22 | 79.2 µg/mL (≈ 147 µM) | 39.7 µg/mL (≈ 73.7 µM) | – | – | – | –
28 | COc1cc(-c2cnc(CCC(F)(F)F)[nH]2)ccc1OCc1ncc(C(F)(F)F)cc1F [Example 391] | 1.58 | 1.1 µg/mL (≈ 2.37 µM) | 7.1 µg/mL (≈ 15.3 µM) | – | – | – | –
29 | COc1c(OCc2ccc(C(F)(F)F)nc2)ccc(-c2cnc(C3CCC(F)(F)CC3)[nH]2)c1OC [Example 14] | 5.42 | > 99 µg/mL | < 0.4 µg/mL | – | – | – | –
30 | CCc1nc(-c2ccc(F)nc2)[nH]c1-c1ccc(OCc2ncc(C(F)(F)F)cc2F)cc1OC [Example 362] | 2.89 | 95.5 µg/mL (≈ 195 µM) | 5 µg/mL (≈ 10.2 µM) | – | – | – | –
31 | COc1cc(OCc2ccc(C(F)(F)F)cn2)ccc1-c1cn(C)c(-c2ccc(F)nc2)n1 [Example 151, 2-fluoro-5-[4-[2-methoxy-4-((5-(trifluoromethyl)pyridin-2-yl)methoxy)phenyl]-1-methyl-1H-imidazol-2-yl]pyridine] | – | > 92 µg/mL | 0.9 µg/mL (≈ 1.96 µM) | – | – | – | 168 to 171 °C
32 | COc1cc(OCc2ccc(C(F)(F)F)cn2)ccc1-c1c[nH]c(-c2ccc(N3CCCC3)nc2)n1 [Example 58] | – | 94.4 µg/mL (≈ 191 µM) | 16.5 µg/mL (≈ 33.3 µM) | – | – | – | 227 to 231 °C (dec.)
33 | COc1cc(-c2c[nH]c(-c3ccccn3)n2)ccc1OCc1ccc(C(F)(F)F)cn1 [Example 87] | – | 39.4 µg/mL (≈ 92.4 µM) | 0.7 µg/mL (≈ 1.64 µM) | – | – | – | 217 to 220 °C
34 | COc1cc(OCc2cc(C(F)(F)F)ccn2)ccc1-c1c[nH]c(-c2ccc(Cl)nc2)n1 [Example 37] | – | 5.6 µg/mL (≈ 12.2 µM) | 0.6 µg/mL (≈ 1.3 µM) | – | – | – | 216 to 217 °C
35 | COc1cc(-c2nc(-c3ccc(Cl)cn3)[nH]c2C)ccc1OCc1ccc(C(F)(F)F)nc1 [Example 29] | – | 3 µg/mL (≈ 6.32 µM) | 0.6 µg/mL (≈ 1.26 µM) | – | – | – | 267 to 269 °C
